The values below come from patent US20250332138A1, “PHARMACEUTICAL COMPOSITION FOR PREVENTING OR TREATING MENTAL DISORDER” (Vivozon, Inc., priority 2022, published 2025).

In assay [1] the target is T1, human 5-HT2A receptor (Homo sapiens, UniProt P28223).
T1 construct: expressed in transfected cells; host or cells: HEK293
In words: HTRF-based IP1 accumulation assay. As to conditions: HEK293 cell line overexpressing human 5-HT2A receptor; serotonin at EC80; IP1 production; read-out: Human 5-HT2AR (IC50). How it is done: The 5-HT2A receptor antagonistic effect of the test compounds was confirmed by measuring the production amount of IP1 using the HEK293 cell line permanently overexpressing the human 5-HT2A receptor. The test compounds were dissolved in 100% DMSO to a final concentration of 10 mM. The starting concentration of 10 μM was prepared from the stock solution, followed by serial dilutions to prepare working solutions in a buffer containing lithium chloride (LiCl). The cells and compounds prepared in the test buffer were placed in a 96-well plate and incubated at room temperature for 10 minutes. Serotonin of EC80 concentration was added, followed by incubation at 37° C. for 30 minutes in a light-shielding state. To measure IP1 accumulation in cells, IP1-d2 acceptor and IP1-Cryptate donor—which are HTRF-based substances for fluorescence signals—were added and incubated for 1 hour at room temperature in a light-shielded state. The fluorescent emission signals of acceptor and donor were detected, and HTRF ratio values were substracted by mean value of serotonin control. The percentage of activation was calculated by normalization of the serotonin control (0%) and IP1 control (100%). The IC50 values of the test compounds are represented in Table 2. (+: 500-1,000 nM, ++: 100-500 nM, +++: less than 100 nM).
(Time-resolved FRET reads energy transfer from a long-lived donor to a nearby acceptor.)

The target of assay [2] is T2, mGluR5 (Homo sapiens, UniProt P41594).
T2 construct: expressed in transfected cells; host or cells: HEK293
T2 sequence (P41594 21-1212): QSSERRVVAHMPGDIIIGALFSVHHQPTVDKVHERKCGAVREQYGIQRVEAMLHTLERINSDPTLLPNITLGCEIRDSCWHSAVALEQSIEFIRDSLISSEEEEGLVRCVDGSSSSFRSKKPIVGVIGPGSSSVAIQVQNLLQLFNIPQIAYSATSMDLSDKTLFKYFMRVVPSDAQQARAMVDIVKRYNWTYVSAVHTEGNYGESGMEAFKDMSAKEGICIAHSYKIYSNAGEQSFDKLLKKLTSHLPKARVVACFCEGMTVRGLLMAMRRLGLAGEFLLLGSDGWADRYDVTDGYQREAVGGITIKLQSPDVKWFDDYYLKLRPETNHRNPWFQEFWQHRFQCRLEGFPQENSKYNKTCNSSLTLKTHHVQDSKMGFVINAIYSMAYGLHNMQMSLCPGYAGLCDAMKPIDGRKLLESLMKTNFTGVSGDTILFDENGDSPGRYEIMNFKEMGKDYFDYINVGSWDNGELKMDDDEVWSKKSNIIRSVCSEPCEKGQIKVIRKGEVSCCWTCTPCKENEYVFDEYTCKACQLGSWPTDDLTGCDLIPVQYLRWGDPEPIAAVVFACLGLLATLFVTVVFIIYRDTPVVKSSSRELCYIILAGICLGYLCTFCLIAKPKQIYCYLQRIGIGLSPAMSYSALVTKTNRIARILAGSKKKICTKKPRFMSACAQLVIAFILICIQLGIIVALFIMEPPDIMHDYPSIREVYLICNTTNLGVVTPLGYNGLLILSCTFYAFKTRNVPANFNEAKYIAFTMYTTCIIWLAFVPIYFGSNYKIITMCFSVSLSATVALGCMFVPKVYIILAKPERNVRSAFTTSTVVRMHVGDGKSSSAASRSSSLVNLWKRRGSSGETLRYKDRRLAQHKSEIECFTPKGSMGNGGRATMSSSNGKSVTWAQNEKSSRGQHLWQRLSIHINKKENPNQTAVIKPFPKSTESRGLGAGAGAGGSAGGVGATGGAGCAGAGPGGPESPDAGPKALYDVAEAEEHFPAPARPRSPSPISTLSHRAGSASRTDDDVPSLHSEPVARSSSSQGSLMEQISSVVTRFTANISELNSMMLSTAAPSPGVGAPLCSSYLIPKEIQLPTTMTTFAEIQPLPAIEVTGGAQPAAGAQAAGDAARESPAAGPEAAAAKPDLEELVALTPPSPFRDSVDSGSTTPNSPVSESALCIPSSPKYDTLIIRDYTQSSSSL
Put plainly: Fluorescence-based Ca2+ mobilization assay. The note with it: HEK293 cell line overexpressing mGluR5; L-glutamate at EC80; Ca2+ level, FLIPR. The procedure:
In order to measure the activity on the mGluR5, an experiment was carried out to check the change in the intracellular Ca^2+ level using the HEK293 cell line permenantly overexpressing the mGluR5. The cells in the cell culture medium were aliquoted into a 384-well plate coated with poly-D-lysine and cultured in a 37° C. incubator supplied with 5% CO2. The next day, the medium was removed and a dye loading buffer—in which a reagent capable of measuring Ca^2+ was dissolved—was added, and then incubated at 37° C. for 60 minutes. The test compounds were dissolved in 100% DMSO at a final concentration of 10 mM to make a stock solution. The starting concentration of 10 μM was prepared from the stock solution, followed by serial dilutions to prepare working solutions (test compound working solutions). The test compound working solutions were added to the cells that were incubated in the dye loading buffer, which were maintained for 30 minutes at room temperature in a light-shielding state before measurement. The Ca^2+ level change induced by L-glutamate at EC80 concentration was measured for 2 minutes using FLIPR Tetra (MDS Analytical Technologies). The fluorescent Ca^2+ signal values in the presence of the test compounds were normalized to the fluorescent singal elicited by EC80 concentration of L-glutamate as 100% and that elicited by vehicle as 0% to estimate % inhibition of the test compounds. The efficacy of the test compounds was calculated as IC50 values and represented in Table 2. (+: 500-1,000 nM, ++: 100-500 nM, +++: less than 100 nM).
On the technique in general: A change in cytosolic calcium serves as a functional read-out for many receptors and channels.

In assay [3] the test system is neurons in the ventral tegmental area. As to conditions: cited from earlier work.
Assay [4] deals with rat. The note with it: rat forced swim test; cited from earlier work.
The subject of assay [5] is cocaine-addicted rats. As to conditions: cited from earlier work.
The subject of assay [6] is male Sprague-Dawley rats. In words: Acquisition of morphine intravenous self-administration (prevention of drug addiction). Format: in vivo, rat. As to conditions: 8 days, vs solvent control. How it is done:
The experimental animals and the experimental methods for intravenous self-administration were performed in a similar manner to Example 1, and Test Compounds A and C were used as the test compounds.
To investigate the preventive effect of the test compounds on morphine addiction, rats recovering from surgery were subjected to morphine intravenous self-administration (IVSA) for eight (8) consecutive days, with 2-hours sessions each day, using a fixed ratio of 1 (FR1) (0.1 mg/kg/infusion, 0.1 mL delivered within 4 seconds). Test compounds A and C were dissolved in water containing 0.5% HPMC (hydroxypropyl methylcellulose) and 1% Tween 80, and administered orally at doses of 5 mg/kg and 100 mg/kg, respectively, 2 hours before morphine IVSA. The preventive effects on acquisition of morphine IVSA were measured, and the results are represented in FIGS. 4 and 5.

For assay [7], the system named is amygdala. As to conditions: cited from earlier work.
Assay [8] relates to test animals. As to conditions: injected into the amygdala; cited from earlier work.
For assay [9], the system named is test animals. As to conditions: injected into the amygdala; cited from earlier work. The source holds these as a separate data set.
In assay [10] the test system is mouse. The note with it: mouse tail suspension test; cited from earlier work.
The subject of assay [11] is patients with cocaine use disorder. The note with it: 68 patients with cocaine use disorder; cited from earlier work.

T1 sequence (P28223 whole entry): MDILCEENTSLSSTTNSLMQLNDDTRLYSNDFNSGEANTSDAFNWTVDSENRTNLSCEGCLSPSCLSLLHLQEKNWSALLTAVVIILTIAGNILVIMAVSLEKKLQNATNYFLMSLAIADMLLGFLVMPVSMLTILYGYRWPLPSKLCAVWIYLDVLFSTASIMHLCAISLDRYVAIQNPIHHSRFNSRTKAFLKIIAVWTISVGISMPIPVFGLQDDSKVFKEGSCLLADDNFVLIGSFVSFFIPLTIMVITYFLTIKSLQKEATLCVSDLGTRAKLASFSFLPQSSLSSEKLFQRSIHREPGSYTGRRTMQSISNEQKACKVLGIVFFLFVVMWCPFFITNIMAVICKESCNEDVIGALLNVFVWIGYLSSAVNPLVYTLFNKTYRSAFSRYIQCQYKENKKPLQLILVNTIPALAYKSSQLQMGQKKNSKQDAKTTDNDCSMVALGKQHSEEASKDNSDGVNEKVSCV

Usually IC50 stands for the concentration that inhibits the measured activity by half. `O=C(NCC1(O)CCCCC1)c1ccc(C#Cc2ccc(F)cc2)cc1` [Compound 26, 4-((4-fluorophenyl)ethynyl)-N-((1-hydroxycyclohexyl)methyl)benzamide]: the concentration for half-maximal inhibition (IC50) in assay [1] was 0.1 to 0.5 µM; in assay [2], below 0.1 µM.
With `COc1cc(CC(C)N)c(OC)cc1I` (stereo not drawn) [DOI, 1-[2,5-dimethoxy-4-iodophenyl]-2-aminopropane], in [3], the dopamine secretion result is on record as “promoted dopamine secretion”.
With `Cc1nc(C#Cc2cccnc2)cs1` [MTEP, 3-[(2-methyl-1,3-thiazol-4-yl)ethynyl]pyridine], the immobility time result in assay [4] is listed as “reducing immobility time”.
Consider `O=C(c1ccc(F)cc1)C1CCN(CCn2c(=O)[nH]c3ccccc3c2=O)CC1` [ketanserin], for which, in [3] (pretreatment), the “cocaine-induced increase in dopamine” value was “suppressed”. Moreover, the “self-administration restored by signal stimulation” value in [5] is reported as “reduced”.
For the compound `O=C(NCC1CCC1)c1ccc(C#Cc2ccc(F)cc2F)cc1` [Compound 30, N-(cyclobutylmethyl)-4-((2,4-difluorophenyl)ethynyl)benzamide], the 50% inhibitory concentration (IC50) in assay [1] and in assay [2] was 0.1 to 0.5 µM each time.
In the case of `[2H]C(NC(=O)c1ccc(C#Cc2ccccc2F)cc1)C1(C)COC1` (stereo not drawn) [Compound 16, 4-((2-fluorophenyl)ethynyl)-N-((3-methyloxetan-3-yl)methyl-d)benzamide], in [1], the IC50 fell in the range of 0.1 to 0.5 µM.
For the compound `O=C(NCC1(O)CCC1)c1ccc(C#Cc2ccc(F)cc2F)cc1` [Compound 29, 4-((2,4-difluorophenyl)ethynyl)-N-((1-hydroxycyclobutyl)methyl)benzamide], the IC50 in assay [1] is below 0.1 µM; in assay [2] it was 0.1 to 0.5 µM.
Taken in the same sequence, the figures for `O=C(NCC1(O)CCC1)c1ccc(C#Cc2ccc(F)cc2)cc1` [Compound 27, 4-((4-fluorophenyl)ethynyl)-N-((1-hydroxycyclobutyl)methyl)benzamide] were below 0.1 µM and below 0.1 µM.
In the case of `COc1cccc([C@H](O)C2CCN(CCc3ccc(F)cc3)CC2)c1OC` [Compound M100907], the dopamine secretion entry in [3] is on record as “inhibited”.
As for `Cc1nc2sccn2c(=O)c1CCN1CCC(=C(c2ccc(F)cc2)c2ccc(F)cc2)CC1` [ritanserin], the dopamine secretion entry in assay [3] was “inhibited”.
Regarding `O=C(NCC1CCOCC1)c1ccc(C#Cc2ccccc2F)cc1` [Compound 1, 4-((2-fluorophenyl)ethynyl)-N-((tetrahydro-2H-pyran-4-yl)methyl)benzamide], in [6] (100 mg/kg orally 2 hours before morphine IVSA, FIG. 5), the “number of injections (acquisition of morphine self-administration)” value is reported as “significantly lower”.
Take `Cc1cccc(C#Cc2ccccc2)n1` [MPEP]: the “formation of long-term potentiation (LTP) in the amygdala” value in assay [7] is “inhibiting”. For the same compound, in assay [8], the “number of entries into the open arm” value was “increased” and the “time the test animals spend in the open arm” value was “increased”. Also, the “time the test animals spend in the bright area” value in [9] is “increased”. For the same compound, in [10], the immobility time result was “decreased immobility time in a dose-dependent manner”.
For `O=C(NC[C@H]1CCOC1)c1ccc(C#Cc2ccc(F)cc2F)cc1` [Compound 18, (R)-4-((2,4-difluorophenyl)ethynyl)-N-((tetrahydrofuran-3-yl)methyl)benzamide], the IC50 in assay [2] was 0.1 to 0.5 µM.
`CC1(O)CC(CNC(=O)c2ccc(C#Cc3ccccc3F)cc2)C1` (stereo not drawn) [Compound 12, 4-((2-fluorophenyl)ethynyl)-N-(((1s,3s)-3-hydroxy-3-methylcyclobutyl)methyl)benzamide]: the half-maximal inhibitory concentration (IC50) is 0.1 to 0.5 µM in [1] and below 0.1 µM in assay [2].
As for `COC(=O)N1CC[C@@H]2[C@H]1CCC[C@@]2(O)C#Cc1cccc(C)c1` [mavoglurant], the clinical efficacy entry in assay [11] is “confirmed”.
For `O=C(NC[C@@H]1CCOC1)c1ccc(C#Cc2ccc(F)cc2F)cc1` [Compound 19, (S)-4-((2,4-difluorophenyl)ethynyl)-N-((tetrahydrofuran-3-yl)methyl)benzamide], the IC50 in assay [2] was in the range of 0.1 to 0.5 µM.
Take `CC1(CNC(=O)c2ccc(C#Cc3ccccc3F)cc2)COC1` [Compound 6, 4-((2-fluorophenyl)ethynyl)-N-((3-methyloxetan-3-yl)methyl)benzamide]: in [6] (5 mg/kg orally 2 hours before morphine IVSA, FIG. 4), the “number of injections (acquisition of morphine self-administration)” value is recorded as “significantly lower”.
For `O=C(NCC1(O)CCCCC1)c1ccc(C#Cc2ccc(F)cc2F)cc1` [Compound 28, 4-((2,4-difluorophenyl)ethynyl)-N-((1-hydroxycyclohexyl)methyl)benzamide], the IC50 in [1] fell in the range of 0.1 to 0.5 µM; in assay [2], 0.5 to 1 µM.
Consider `O=C(NCCC1CCOCC1)c1ccc(C#Cc2ccc(F)cc2F)cc1` [Compound 25, 4-((2,4-difluorophenyl)ethynyl)-N-(2-(tetrahydro-2H-pyran-4-yl)ethyl)benzamide], for which the IC50 in [1] is below 0.1 µM; in assay [2] it was 0.1 to 0.5 µM.
Taken in the same sequence, the figures for `CC1(CNC(=O)c2ccc(C#Cc3ccc(F)cc3F)cc2)CCOCC1` [Compound 24, 4-((2,4-difluorophenyl)ethynyl)-N-((4-methyltetrahydro-2H-pyran-4-yl)methyl)benzamide] were 0.1 to 0.5 µM and below 0.1 µM.
